≈ marks a conversion by molar mass, not a printed value. Read-outs that look alike come from different tables or passages of the source.
How the values were obtained:
[1] = test system: M. tuberculosis H37Rv; assay: MIC, colorimetric microtiter plate method with Alamar blue; format: cell-based; conditions: Mycobacterium tuberculosis, read-out: MIC (μg/mL) M. tuberculosis
Experimental: Activity Against M. Tuberculosis
The minimum inhibitory concentration (MIC) of compounds were determined against H37Rv by a colorimetric microtiter plate based method with Alamar blue.

[2] = target: MenA (Mycobacterium tuberculosis, UniProt P9WIP3); assay: In vitro assay against MenA (membrane fractions); format: biochemical; conditions: membrane fractions from M. tuberculosis; 5 μM farnesyl diphosphate, 50 μM dihydroxynaphthoic acid, pH 8.5; read-out: IC50 (μmol) MenA
Chain of MenA (P9WIP3 whole entry): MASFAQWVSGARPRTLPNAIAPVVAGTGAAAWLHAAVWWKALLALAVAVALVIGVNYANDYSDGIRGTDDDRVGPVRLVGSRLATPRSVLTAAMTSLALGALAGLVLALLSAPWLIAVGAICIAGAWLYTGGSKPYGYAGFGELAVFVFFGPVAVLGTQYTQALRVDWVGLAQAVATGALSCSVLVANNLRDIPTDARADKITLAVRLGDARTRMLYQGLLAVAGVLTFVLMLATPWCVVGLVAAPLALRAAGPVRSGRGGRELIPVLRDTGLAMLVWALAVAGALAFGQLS

[3] = test system: M. intracellularae ATCC 15984; assay: MIC, agar (7H11) dilution method; format: cell-based; conditions: read-out: Minimum inhibitory concentrations (MIC)
[4] = test system: M. tuberculosis Kurono; assay: MIC, agar (7H11) dilution method; format: cell-based; conditions: Mycobacterium tuberculosis, read-out: Minimum inhibitory concentrations (MIC)
[5] = test system: M. tuberculosis H37Rv; assay: MIC, agar (7H11) dilution method; format: cell-based; conditions: Mycobacterium tuberculosis, H37RV
[6] = test system: M. kansasii NIHJ1619; assay: MIC, agar (7H11) dilution method; format: cell-based; conditions: Mycobacterium kansasii, read-out: Minimum inhibitory concentrations (MIC)
[7] = test system: M. fortuitum NIHJ1615; assay: MIC, agar (7H11) dilution method; format: cell-based; conditions: Mycolicibacterium fortuitum, read-out: Minimum inhibitory concentrations (MIC)
[8] = test system: M. avium Flamingo; assay: MIC, agar (7H11) dilution method; format: cell-based; conditions: Mycobacterium avium, read-out: Minimum inhibitory concentrations (MIC)
[9] = test system: M. smegmatis Takeo; assay: MIC, agar (7H11) dilution method; format: cell-based; conditions: Mycolicibacterium smegmatis, read-out: Minimum inhibitory concentrations (MIC)
[10] = test system: M. aurum; assay: MIC, agar (7H11) dilution method; format: cell-based; conditions: Mycolicibacterium aurum, read-out: Minimum inhibitory concentrations (MIC)
[11] = test system: M. bovis BCG Tokyo; assay: microbe, parasite or virus in culture; format: cell-based; conditions: Mycobacterium tuberculosis variant bovis BCG, BCG, read-out: Minimum inhibitory concentrations (MIC)
[12] = test system: VRSA 2441-T0041; assay: MIC, other bacteria (Table 3); format: cell-based, S. aureus; conditions: Staphylococcus aureus; VRSA 2441-T0041, low level VCM-resistant; inoculum size 10^6 CFU/ml; read-out: MIC
[13] = test system: S. aureus ATCC 43300 (MRSA); assay: MIC, other bacteria (Table 3); format: cell-based; conditions: Staphylococcus aureus, inoculum size 10^6 CFU/ml, read-out: MIC
[14] = test system: E. faecalis NCTC 12201 (VRE); assay: MIC, other bacteria (Table 3); format: cell-based; conditions: Enterococcus faecalis, high level VCM-resistant, Van A, inoculum size 10^6 CFU/ml, read-out: MIC
[15] = test system: S. marsascens ATCC 14756; assay: MIC, other bacteria (Table 3); format: cell-based; conditions: inoculum size 10^6 CFU/ml, read-out: MIC
[16] = test system: P. mirabilis ATCC 4630; assay: MIC, other bacteria (Table 3); format: cell-based; conditions: Proteus mirabilis, ATCC4630, inoculum size 10^6 CFU/ml, read-out: MIC
[17] = test system: MRSE 2442-05053; assay: MIC, other bacteria (Table 3); format: cell-based, S. epidermidis; conditions: Staphylococcus epidermidis, inoculum size 10^6 CFU/ml, read-out: MIC
[18] = test system: MRSA 2441-05129; assay: MIC, other bacteria (Table 3); format: cell-based, S. aureus; conditions: Staphylococcus aureus, inoculum size 10^6 CFU/ml, read-out: MIC
[19] = test system: MRSE 2442-05118; assay: MIC, other bacteria (Table 3); format: cell-based, S. epidermidis; conditions: Staphylococcus epidermidis, inoculum size 10^6 CFU/ml, read-out: MIC
[20] = test system: MRSA 2441-05104; assay: MIC, other bacteria (Table 3); format: cell-based, S. aureus; conditions: Staphylococcus aureus, inoculum size 10^6 CFU/ml, read-out: MIC
[21] = test system: K. pneumoniae ATCC 27736; assay: MIC, other bacteria (Table 3); format: cell-based; conditions: Klebsiella pneumoniae, ATCC27736, inoculum size 10^6 CFU/ml, read-out: MIC
[22] = test system: MRSA 2441-05112; assay: MIC, other bacteria (Table 3); format: cell-based, S. aureus; conditions: Staphylococcus aureus, inoculum size 10^6 CFU/ml, read-out: MIC
[23] = test system: MRSE 2442-05047; assay: MIC, other bacteria (Table 3); format: cell-based, S. epidermidis; conditions: Staphylococcus epidermidis, inoculum size 10^6 CFU/ml, read-out: MIC
[24] = test system: E. coli ATCC 25922; assay: MIC, other bacteria (Table 3); format: cell-based; conditions: Escherichia coli, ATCC25922, inoculum size 10^6 CFU/ml, read-out: MIC
[25] = test system: E. faecalis ATCC 29212; assay: MIC, other bacteria (Table 3); format: cell-based; conditions: Enterococcus faecalis, ATCC29212, inoculum size 10^6 CFU/ml, read-out: MIC
[26] = test system: MRSA 2441-05254; assay: MIC, other bacteria (Table 3); format: cell-based, S. aureus; conditions: Staphylococcus aureus, inoculum size 10^6 CFU/ml, read-out: MIC
[27] = test system: MRSE 2442-05030; assay: MIC, other bacteria (Table 3); format: cell-based, S. epidermidis; conditions: Staphylococcus epidermidis, inoculum size 10^6 CFU/ml, read-out: MIC
[28] = test system: MRSE 2442-05060; assay: MIC, other bacteria (Table 3); format: cell-based, S. epidermidis; conditions: Staphylococcus epidermidis, inoculum size 10^6 CFU/ml, read-out: MIC
[29] = test system: P. aeruginosa ATCC 27853; assay: MIC, other bacteria (Table 3); format: cell-based; conditions: Pseudomonas aeruginosa, ATCC27853, inoculum size 10^6 CFU/ml, read-out: MIC
[30] = test system: E. faecium NCTC 12203 (VRE); assay: MIC, other bacteria (Table 3); format: cell-based; conditions: Enterococcus faecium, high level VCM-resistant, Van A, inoculum size 10^6 CFU/ml, read-out: MIC
[31] = test system: MRSA 2441-05262; assay: MIC, other bacteria (Table 3); format: cell-based, S. aureus; conditions: Staphylococcus aureus, inoculum size 10^6 CFU/ml, read-out: MIC
[32] = test system: S. epidermidis ATCC 12228; assay: MIC, other bacteria (Table 3); format: cell-based; conditions: Staphylococcus epidermidis, ATCC12228, inoculum size 10^6 CFU/ml, read-out: MIC
[33] = test system: S. aureus ATCC 29213; assay: MIC, other bacteria (Table 3); format: cell-based; conditions: Staphylococcus aureus, ATCC29213, inoculum size 10^6 CFU/ml, read-out: MIC
[34] = test system: E. faecium ATCC 49224; assay: MIC, other bacteria (Table 3); format: cell-based; conditions: Enterococcus faecium, ATCC49224; E. faecium ATCC 49224, GM-resistant; inoculum size 10^6 CFU/ml; read-out: MIC
[35] = test system: MRSE 2442-05110; assay: MIC, other bacteria (Table 3); format: cell-based, S. epidermidis; conditions: Staphylococcus epidermidis, inoculum size 10^6 CFU/ml, read-out: MIC
[36] = test system: E. faecalis ATCC 51299 (VRE); assay: MIC, other bacteria (Table 3); format: cell-based; conditions: Enterococcus faecalis, low level VCM-resistant, Van B, inoculum size 10^6 CFU/ml, read-out: MIC
[37] = test system: MRSA 2441-05223; assay: MIC, other bacteria (Table 3); format: cell-based, S. aureus; conditions: Staphylococcus aureus, inoculum size 10^6 CFU/ml, read-out: MIC

## C=CCN(C)CCCCCCCCOc1ccc(C(=O)c2ccc(Br)cc2)cc1 [Cpd 2]
[1]
  MIC: 4 µg/mL (≈ 8.73 µM)
[2]
  IC50: 10 µM

## C=CCN(C)CCCCCCCCOc1ccc(C(=O)c2ccc(Cl)cc2)c(O)c1 [Cpd 13, (4-(8-(allyl(methyl)amino)octyloxy)-2-hydroxyphenyl)(4-chlorophenyl)methanone]
[1]
  MIC: 0.2 µg/mL (≈ 0.465 µM)
[2]
  IC50: < 2.5 µM

## C=CCN(C)CCCCCCCCOc1ccc(C(O)c2ccc(Br)cc2)cc1 (stereo not drawn) [Cpd 4]
[1]
  MIC: 7 µg/mL (≈ 15.2 µM)
[2]
  IC50: 12 µM

## CO[C@H]1/C=C/O[C@@]2(C)Oc3c(C)c(O)c4c(O)c(c(/C=N/N5CCN(C)CC5)c(O)c4c3C2=O)NC(=O)/C(C)=C\C=C\[C@H](C)[C@H](O)[C@@H](C)[C@@H](O)[C@@H](C)[C@H](OC(C)=O)[C@@H]1C [RFP, Rifampicin, reference compound]
[3]
  MIC: 3.13 mg/L (≈ 3.8 µM)
[4]; M. tuberculosis Kurono, agar (7H11) dilution
  MIC: 0.1 mg/L (≈ 0.122 µM)
[5]; M. tuberculosis H37Rv, table line r8 (2nd of 5 so labelled), read-out: Minimum inhibitory concentrations (MIC)
  MIC: 0.1 mg/L (≈ 0.122 µM)
[5]; M. tuberculosis H37Rv, table line r9 (3rd of 5 so labelled), read-out: Minimum inhibitory concentrations (MIC)
  MIC: 0.2 mg/L (≈ 0.243 µM)
[5]; M. tuberculosis H37Rv, table line r10 (4th of 5 so labelled), read-out: Minimum inhibitory concentrations (MIC)
  MIC: > 25 mg/L
[5]; M. tuberculosis H37Rv, table line r11 (5th of 5 so labelled), read-out: Minimum inhibitory concentrations (MIC)
  MIC: 0.2 mg/L (≈ 0.243 µM)
[6]
  MIC: 3.13 mg/L (≈ 3.8 µM)
[7]
  MIC: > 25 mg/L
[8]
  MIC: 3.13 mg/L (≈ 3.8 µM)
[9]
  MIC: > 25 mg/L
[10]
  MIC: 0.78 mg/L (≈ 0.948 µM)
[11]
  MIC: 0.1 mg/L (≈ 0.122 µM)

## C=CCN(C)CCCCCCCCOc1ccc(C(=O)c2ccc(Cl)cc2Cl)cc1 [Cpd 7, (4-(8-(Allyl(methyl)amino)octyloxy)phenyl)(2,4-dichlorophenyl)methanone]
[1]
  MIC: 4 µg/mL (≈ 8.92 µM)
[2]
  IC50: 10 µM

## C#CCN(C)CCCCCCCCOc1ccc(C(=O)c2ccc(Cl)cc2)c(Cl)c1 [Cpd 11, (2-Chloro-4-(8-(methyl(prop-2-ynyl)amino)octyloxy)phenyl)(4-chlorophenyl)methanone]
[1]
  MIC: 12 µg/mL (≈ 26.9 µM)
[2]
  IC50: 15 µM

## C=CCN(C)CCCCCCCCOc1ccc(C(=O)c2ccc(Cl)cc2)cc1 [Cpd 5, (4-(8-(Allyl(methyl)amino)octyloxy)phenyl)(4-chlorophenyl)methanone]
[1]
  MIC: 0.3 µg/mL (≈ 0.725 µM)
[2]
  IC50: 5 µM

## C=CCN(C)CCCCCCCCOc1ccc(C(=O)c2ccc(Cl)cc2)c(O)c1 [Cpd #22, (4-(8-(allyl(methyl)amino)octyloxy)-2-hydroxyphenyl)(4-chlorophenyl)methanone]
[12]
  MIC: 25 mg/L (≈ 58.1 µM)
[13]
  MIC: 25 mg/L (≈ 58.1 µM)
[14]
  MIC: 12.5 mg/L (≈ 29.1 µM)
[15]
  MIC: > 100 mg/L
[3]
  MIC: 6.25 mg/L (≈ 14.5 µM)
[4]
  MIC: 1.56 mg/L (≈ 3.63 µM)
[5]; read-out: Minimum inhibitory concentrations (MIC), M. tuberculosis H37Rv, table line r7 (1st of 5 so labelled)
  MIC: 1.56 mg/L (≈ 3.63 µM)
[5]; read-out: Minimum inhibitory concentrations (MIC), M. tuberculosis H37Rv, table line r8 (2nd of 5 so labelled)
  MIC: 1.56 mg/L (≈ 3.63 µM)
[5]; read-out: Minimum inhibitory concentrations (MIC), M. tuberculosis H37Rv, table line r9 (3rd of 5 so labelled)
  MIC: 1.56 mg/L (≈ 3.63 µM)
[5]; read-out: Minimum inhibitory concentrations (MIC), M. tuberculosis H37Rv, table line r10 (4th of 5 so labelled)
  MIC: 1.56 mg/L (≈ 3.63 µM)
[5]; read-out: Minimum inhibitory concentrations (MIC), M. tuberculosis H37Rv, table line r11 (5th of 5 so labelled)
  MIC: 3.13 mg/L (≈ 7.28 µM)
[16]
  MIC: > 100 mg/L
[17]
  MIC: 12.5 mg/L (≈ 29.1 µM)
[18]
  MIC: 50 mg/L (≈ 116 µM)
[19]
  MIC: 12.5 mg/L (≈ 29.1 µM)
[20]
  MIC: 25 mg/L (≈ 58.1 µM)
[21]
  MIC: > 100 mg/L
[22]
  MIC: 25 mg/L (≈ 58.1 µM)
[23]
  MIC: 12.5 mg/L (≈ 29.1 µM)
[24]
  MIC: 50 mg/L (≈ 116 µM)
[25]
  MIC: 12.5 mg/L (≈ 29.1 µM)
[6]
  MIC: 6.25 mg/L (≈ 14.5 µM)
[7]
  MIC: 12.5 mg/L (≈ 29.1 µM)
[26]
  MIC: 50 mg/L (≈ 116 µM)
[27]
  MIC: 12.5 mg/L (≈ 29.1 µM)
[28]
  MIC: 12.5 mg/L (≈ 29.1 µM)
[29]
  MIC: > 100 mg/L
[30]
  MIC: 6.25 mg/L (≈ 14.5 µM)
[31]
  MIC: 25 mg/L (≈ 58.1 µM)
[32]
  MIC: 12.5 mg/L (≈ 29.1 µM)
[33]
  MIC: 25 mg/L (≈ 58.1 µM)
[34]
  MIC: 12.5 mg/L (≈ 29.1 µM)
[35]
  MIC: 12.5 mg/L (≈ 29.1 µM)
[36]
  MIC: 12.5 mg/L (≈ 29.1 µM)
[8]
  MIC: 6.25 mg/L (≈ 14.5 µM)
[9]
  MIC: 12.5 mg/L (≈ 29.1 µM)
[37]
  MIC: 25 mg/L (≈ 58.1 µM)
[10]
  MIC: 6.25 mg/L (≈ 14.5 µM)
[11]
  MIC: 3.13 mg/L (≈ 7.28 µM)

— patent US8884061B2, “Compositions and methods of use of electron transport system inhibitors” (priority 2006, dated 2014)
